Common to all, as to experiment: inhibition of tumour cell growth, NCI panel, 48 h
Experiment [1] deals with MDA-N.
The subject of experiment [2] is OVCAR-8 ovarian.
Experiment [3] deals with HS 578T breast.
The test system of experiment [4] is HOP-62 NSCLC.
Experiment [5] concerns SNB-75 CNS.
The subject of experiment [6] is HCT-116 colon.
Experiment [7] relates to CCRF-CEM leukemia.
For experiment [8], the system named is UACC-62 melanoma.
Experiment [9] concerns MCF7 breast.
The test system of experiment [10] is OVCAR-3 ovarian.

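96-well plates; 48 h exposure; 5 concentrations. Endpoints by linear interpolation between flanking doses. Not reached: highest tested concentration assigned. At the TGI there is no net growth.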

In the case of `CC1C/C(=C\c2ccc(O)c(O)c2)C(=O)/C(=C/c2ccc(O)c(O)c2)C1` (configuration not stated), the TGI was 15.7 µM in experiment [1]; 48.7 µM in [2]; 24.9 µM in experiment [3]; 24.4 µM in experiment [4]; 16.7 µM in experiment [5]; 20 µM in experiment [6]. The TGI in experiment [7] was found to be 7.2 µM; in experiment [8], 13.6 µM; in [9], 14.8 µM; in [10], 18.1 µM.
In the case of `COc1ccc(C2=C(N)c3cc(OC)ccc3C2=O)cc1`, the TGI in experiment [1] was greater than 100 µM; in experiment [2], greater than 100 µM; in experiment [3], 69.9 µM; in experiment [4], greater than 100 µM; in [5] it was greater than 100 µM; in [6] it was greater than 100 µM. Further, the TGI in [8], in experiment [9] and in experiment [10] was greater than 100 µM in each case.
Turning to `CCOC(=O)CCC1(C(=O)O[C@@H]2C[C@H](C)CC[C@H]2C(C)C)CCCCC1=O` (some centres not stated), the TGI in [1], in experiment [2], in experiment [3], in [4], in experiment [5] and in experiment [6] was greater than 100 µM in each case. The TGI in experiment [7], in experiment [8], in experiment [9] and in experiment [10] was greater than 100 µM in each case.
`CCCCCC(=O)OCC1(CO)C/C(=C/CC(C(C)C)C(C)C)C(=O)O1` (configuration not stated): the TGI in [1], in experiment [2], in experiment [3], in [4], in experiment [5] and in [6] was greater than 75 µM throughout. In addition, the TGI in experiment [7] is 68.7 µM; in [8], greater than 75 µM; in experiment [9], greater than 75 µM; in experiment [10], greater than 75 µM.
As for `CC1=NNC(N)=N/C1=C\C(Sc1ccc(Cl)cc1)c1ccc(Cl)cc1Cl` (configuration not stated), the TGI is greater than 71.5 µM in experiment [1]; 31.7 µM in experiment [2]; 44.2 µM in [3]; 57.8 µM in [4]; 32.9 µM in experiment [5]; greater than 65 µM in experiment [6]. Also, the values for the TGI in [7], in [8] and in [9] were 7.62 µM, greater than 51.9 µM and 16.4 µM, respectively.
Turning to `O=C(O)CCC(NC(=O)/C(=C/c1ccccc1)NC(=O)c1ccccc1)C(=O)O` (configuration not stated), the TGI in [1], in experiment [2], in [3], in experiment [4], in [5] and in experiment [6] was greater than 100 µM throughout. For the same molecule, the TGI in experiment [7], in experiment [8], in [9] and in experiment [10] was greater than 100 µM in each case.
Take `O=c1[nH]c(=O)c2c([nH]1)[nH]c1ccccc12`: the TGI in experiment [1], in experiment [2], in experiment [3], in experiment [4], in experiment [5] and in experiment [6] was greater than 100 µM in each case. In addition, the TGI in [7], in [8], in experiment [9] and in experiment [10] was greater than 100 µM throughout.
For the molecule `C[C@@H]1CC(=O)[C@@]2(C)[C@](O)(CCC3O[C@]32C)[C@@]12CC(c1ccoc1)OC2=O` (some centres not stated), the TGI in experiment [1] is greater than 100 µM; in experiment [2], greater than 100 µM; in [3], greater than 100 µM; in experiment [5], greater than 100 µM; in experiment [6], greater than 100 µM; in experiment [7], 59.8 µM. The TGI in experiment [8], in experiment [9] and in [10] was greater than 100 µM each time.
In the case of `CCN(CC)CCC1(C(=O)OC)SCCc2ccc(C)cc21` (configuration not stated), the TGI in experiment [1], in experiment [2], in experiment [3], in [4], in experiment [5] and in experiment [6] was greater than 100 µM throughout. The TGI in experiment [7], in experiment [8], in [9] and in experiment [10] was greater than 100 µM throughout.
For `NC(=O)c1nnc2c(F)cccc2c1N`, the TGI in experiment [1], in experiment [2], in [3], in experiment [4], in [5] and in experiment [6] was greater than 100 µM throughout. Moreover, the TGI in experiment [7], in [8], in experiment [9] and in experiment [10] was greater than 100 µM in each case.
Consider `C/C(=N/NC(=O)c1ccccc1Nc1ccccc1C(=O)N/N=C(\C)c1ccc(C)cc1)c1ccc(C)cc1`, for which the TGI in experiment [1], in experiment [2], in [3], in experiment [4], in experiment [5] and in experiment [6] was greater than 100 µM throughout. In addition, the TGI in experiment [7], in [8], in [9] and in experiment [10] was greater than 100 µM in each case.
As for `CN1CCN(C2CC(=O)c3c(Cl)sc(Cl)c32)CC1` (configuration not stated), the TGI in experiment [1] is 35 µM; in experiment [2], greater than 21.3 µM; in experiment [3] it was greater than 23.7 µM; in experiment [4], 42.6 µM; in [5], 41.5 µM; in experiment [6], 19.2 µM. In addition, the TGI in experiment [7] is 14.6 µM; in experiment [8] it was 34.1 µM; in [9], greater than 100 µM; in experiment [10], 38.7 µM.
Consider `COc1ccc2c(-c3csc(-c4c[nH]c5ccccc45)n3)c[nH]c2c1`, for which the TGI in experiment [1] is greater than 100 µM; in experiment [2] it was greater than 60.6 µM; in [3] it was greater than 78.7 µM; in experiment [4], 49.2 µM; in experiment [5], 91.7 µM; in experiment [6], 19 µM. For the same molecule, the TGI in experiment [7] was greater than 63.3 µM; in experiment [8], greater than 94.8 µM; in [9], greater than 100 µM; in experiment [10] it was 51.7 µM.
On to `c1ccc2c(c1)[C@@H]1O[C@@H]1[C@@]13O[C@@]21[C@H]1O[C@H]1c1ccccc13`, for which the TGI was determined as 32.6 µM in experiment [1]; 39.6 µM in experiment [2]; 28.3 µM in experiment [3]; 30.8 µM in experiment [4]; 27.2 µM in experiment [5]; 25.2 µM in experiment [6]. Also, the TGI in experiment [7] is 24.3 µM; in experiment [8], 28.1 µM; in experiment [9], greater than 100 µM; in experiment [10] it was 32.1 µM.

(Values after PubChem BioAssay (NCI).)
